Data: patent publication US11673855B2, “Voltage gated sodium channel imaging agents” (The General Hospital Corporation, priority 2017, dated 2023)
“Also recorded” adds a separate entry of the source.

Experiments:
[1] = system: myocardium of non-human primates; assay: PET/MR imaging of non-human primates; assay type: in vivo
Procedure: Two female baboons (Papio anubis, weight=15.2±1.6 kg) were deprived of food for 12 h prior to the study. Anesthesia was induced with intramuscular ketamine (10 mg/kg) and xylazine (0.5 mg/kg). After endotracheal intubation, the baboons were catheterized antecubitally for injection of the radiolabeled compound. Anesthesia was maintained using isoflurane (1-1.5%, 100% oxygen, 1 L/min) during the scan, and ketamine/xylazine effects were reversed with yobine (0.11 mg/kg, i.m.) before image acquisition. Vital signs, including heart rate, respiration rate, blood pressure, O2 saturation, and end tidal CO2, were monitored continuously and recorded every 15 min. Simultaneous PET/MR data were acquired using a Siemens Biograph mMR system (Siemens Healthcare, Erlangen, Germany). Each animal underwent a baseline and a blocking scan on two separate days. MR body imaging was performed with real-time respiratory bellow gating and using the body matrix coil and the built-in spine coil as the receiving coil elements. High-resolution anatomical T1-weighted, dual echo, gradient echo sequence was acquired with the following parameters: TR=194 ms, TE1/TE2=1.23/2.46 ms, matrix size 256×256, FOV=35 cm, phase FOV 65.6% (in-plane resolution=1.4 mm), 4 mm slice thickness, and 80 slices. For the purpose of MR-based attenuation correction of the PET data, a T1-weighted, 2-point Dixon 3D volumetric interpolated breath-hold examination (VIBE) scan was obtained. PET data were obtained using a single-bed position with an axial field of view of 25.8 cm, and a transverse field of view of 59.4 cm. PET data were acquired dynamically for 60 min (bolus injection of N-(2,6-dimethylphenyl)-2-(ethyl(2-(fluoro-^18F)ethyl)amino)acetamide) or 90 min (bolus/infusion of N-(2,6-dimethylphenyl)-2-(ethyl(2-(fluoro-^18F)ethyl)amino)acetamide) after intravenous administration of N-(2,6-dimethylphenyl)-2-(ethyl(2-(fluoro-^18F)ethyl)amino)acetamide (5.0±0.2 mCi bolus or 4 mCi bolus+4 mCi infusion). […] Standard uptake unit (SUV) was calculated as the mean radioactivity per injected dose per weight.

[2] = system: rat myocardium; assay: Rodent PET-CT imaging of the myocardium, single bolus and bolus+infusion, with lidocaine block; assay type: in vivo
Procedure: Male Sprague-Dawley rats (400-500 g) were anesthetized with inhalational isoflurane (Forane) (3% in a carrier of 1.5-2 L/min medical oxygen for induction and 2% isoflurane for maintenance of anesthesia during the scan). Lateral tail vein catheters were placed for intravenous (i.v.) injection of the compounds. Two rats were arranged head-to-head in a Triumph Trimodality PET/CT/SPECT scanner (Gamma Medica, Northridge, Calif.) or a MicroPET P4 scanner. […] Dynamic PET acquisition was performed over 45 min and was followed by computed tomography (CT) for anatomic coregistration and attenuation correction. […] Reconstructed images were exported from the scanner in DICOM format along with an anatomic CT for rodent studies. These files were imported to AMIDE and Gaussian filtered (kernel size=15, fwhm=1.5 mm). Regions of interest (ROIs) were drawn manually at the lung and myocardium guided by high-resolution CT structural images and summed PET data. Time-activity-curves (TACs) were exported in terms of decay corrected activity per unit volume at specified time points with gradually increasing intervals.

[3] = target: T1, SCN5A (Rattus norvegicus, UniProt P15389); assay: Ex vivo F-18 autoradiography of rat myocardium; assay type: binding
T1 construct: Heart sections ([…] thickness) were prepared using a −20° C. cryostat and thaw-mounted onto gelatin-coated slides; from tissue; host or cells: rat heart (myocardium) cryosections
T1 sequence (P15389 whole entry): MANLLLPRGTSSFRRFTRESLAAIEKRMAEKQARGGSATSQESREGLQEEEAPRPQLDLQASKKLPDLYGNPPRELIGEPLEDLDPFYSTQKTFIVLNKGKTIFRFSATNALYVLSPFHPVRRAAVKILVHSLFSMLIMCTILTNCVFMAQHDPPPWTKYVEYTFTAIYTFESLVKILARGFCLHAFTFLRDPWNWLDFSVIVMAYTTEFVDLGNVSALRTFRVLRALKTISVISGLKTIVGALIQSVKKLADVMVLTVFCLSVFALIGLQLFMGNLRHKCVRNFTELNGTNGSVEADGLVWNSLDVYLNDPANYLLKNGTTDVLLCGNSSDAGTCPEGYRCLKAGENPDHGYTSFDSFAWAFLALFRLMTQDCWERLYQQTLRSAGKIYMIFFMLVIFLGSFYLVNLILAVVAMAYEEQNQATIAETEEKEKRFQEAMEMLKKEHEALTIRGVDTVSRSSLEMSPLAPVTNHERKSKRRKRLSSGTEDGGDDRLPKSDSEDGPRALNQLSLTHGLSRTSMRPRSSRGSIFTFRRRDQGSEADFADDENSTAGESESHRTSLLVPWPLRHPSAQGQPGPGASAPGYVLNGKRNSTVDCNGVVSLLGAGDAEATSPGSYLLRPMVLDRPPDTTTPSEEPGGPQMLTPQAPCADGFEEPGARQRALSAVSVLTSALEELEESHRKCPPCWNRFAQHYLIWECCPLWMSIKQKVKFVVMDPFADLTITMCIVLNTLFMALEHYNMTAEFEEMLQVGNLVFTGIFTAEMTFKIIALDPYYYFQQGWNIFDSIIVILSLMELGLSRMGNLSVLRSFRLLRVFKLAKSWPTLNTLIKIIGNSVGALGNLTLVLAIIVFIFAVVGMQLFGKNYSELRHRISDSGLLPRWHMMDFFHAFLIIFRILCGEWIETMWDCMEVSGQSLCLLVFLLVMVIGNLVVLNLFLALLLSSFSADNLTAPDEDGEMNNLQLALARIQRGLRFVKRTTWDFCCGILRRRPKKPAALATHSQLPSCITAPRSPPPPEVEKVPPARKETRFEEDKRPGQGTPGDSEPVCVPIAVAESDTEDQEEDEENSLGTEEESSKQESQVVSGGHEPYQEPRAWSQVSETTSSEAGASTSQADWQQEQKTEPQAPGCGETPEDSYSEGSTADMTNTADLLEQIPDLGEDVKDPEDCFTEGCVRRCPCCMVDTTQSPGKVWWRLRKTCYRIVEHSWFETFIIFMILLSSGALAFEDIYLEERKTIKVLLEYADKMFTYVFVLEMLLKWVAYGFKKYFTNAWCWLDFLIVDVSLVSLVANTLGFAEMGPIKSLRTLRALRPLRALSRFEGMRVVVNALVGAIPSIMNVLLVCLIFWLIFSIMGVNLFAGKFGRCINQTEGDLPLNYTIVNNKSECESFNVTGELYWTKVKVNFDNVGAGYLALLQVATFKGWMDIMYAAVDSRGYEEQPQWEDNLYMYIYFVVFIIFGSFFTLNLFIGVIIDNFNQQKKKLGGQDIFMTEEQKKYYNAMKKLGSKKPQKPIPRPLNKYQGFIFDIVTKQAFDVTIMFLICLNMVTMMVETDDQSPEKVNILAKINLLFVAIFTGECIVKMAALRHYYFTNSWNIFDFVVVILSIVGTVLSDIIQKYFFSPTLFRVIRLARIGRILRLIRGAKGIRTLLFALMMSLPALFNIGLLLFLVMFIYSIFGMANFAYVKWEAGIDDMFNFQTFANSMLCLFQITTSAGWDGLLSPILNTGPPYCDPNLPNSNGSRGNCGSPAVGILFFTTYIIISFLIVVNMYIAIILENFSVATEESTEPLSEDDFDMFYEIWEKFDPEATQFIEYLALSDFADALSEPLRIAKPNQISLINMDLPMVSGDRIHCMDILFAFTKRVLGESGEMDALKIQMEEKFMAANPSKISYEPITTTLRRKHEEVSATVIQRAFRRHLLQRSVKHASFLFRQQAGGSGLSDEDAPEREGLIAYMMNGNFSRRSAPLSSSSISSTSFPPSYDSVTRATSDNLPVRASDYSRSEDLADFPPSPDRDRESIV
Procedure: Heart sections ([…] thickness) were prepared using a −20° C. cryostat and thaw-mounted onto gelatin-coated slides. The slides were stored at −20° C. until the day of the experiment. […] Individual images of sections were cropped using ImageJ with no additional adjustment to color levels/thresholds. The experimental setup was designed such that both baseline and competition experiments contained the same amount of radioactivity and were imaged on the same screen. […] For variation of washing times, the incubation was held constant at 15 min.

[4] = target: T2, SCN5A (Homo sapiens, UniProt Q14524); assay: Ex vivo autoradiography of human heart tissue, self-displacement dose-response; assay type: binding; details: self-inhibition, modified Cheng-Prusoff equation
T2 construct: Non-failing human donor heart samples were compared to explanted tissue from patients who had suffered from heart failure; from tissue; host or cells: human left ventricular myocardium (non-failing donor hearts and explanted DCM-failing hearts)
T2 sequence (Q14524 whole entry): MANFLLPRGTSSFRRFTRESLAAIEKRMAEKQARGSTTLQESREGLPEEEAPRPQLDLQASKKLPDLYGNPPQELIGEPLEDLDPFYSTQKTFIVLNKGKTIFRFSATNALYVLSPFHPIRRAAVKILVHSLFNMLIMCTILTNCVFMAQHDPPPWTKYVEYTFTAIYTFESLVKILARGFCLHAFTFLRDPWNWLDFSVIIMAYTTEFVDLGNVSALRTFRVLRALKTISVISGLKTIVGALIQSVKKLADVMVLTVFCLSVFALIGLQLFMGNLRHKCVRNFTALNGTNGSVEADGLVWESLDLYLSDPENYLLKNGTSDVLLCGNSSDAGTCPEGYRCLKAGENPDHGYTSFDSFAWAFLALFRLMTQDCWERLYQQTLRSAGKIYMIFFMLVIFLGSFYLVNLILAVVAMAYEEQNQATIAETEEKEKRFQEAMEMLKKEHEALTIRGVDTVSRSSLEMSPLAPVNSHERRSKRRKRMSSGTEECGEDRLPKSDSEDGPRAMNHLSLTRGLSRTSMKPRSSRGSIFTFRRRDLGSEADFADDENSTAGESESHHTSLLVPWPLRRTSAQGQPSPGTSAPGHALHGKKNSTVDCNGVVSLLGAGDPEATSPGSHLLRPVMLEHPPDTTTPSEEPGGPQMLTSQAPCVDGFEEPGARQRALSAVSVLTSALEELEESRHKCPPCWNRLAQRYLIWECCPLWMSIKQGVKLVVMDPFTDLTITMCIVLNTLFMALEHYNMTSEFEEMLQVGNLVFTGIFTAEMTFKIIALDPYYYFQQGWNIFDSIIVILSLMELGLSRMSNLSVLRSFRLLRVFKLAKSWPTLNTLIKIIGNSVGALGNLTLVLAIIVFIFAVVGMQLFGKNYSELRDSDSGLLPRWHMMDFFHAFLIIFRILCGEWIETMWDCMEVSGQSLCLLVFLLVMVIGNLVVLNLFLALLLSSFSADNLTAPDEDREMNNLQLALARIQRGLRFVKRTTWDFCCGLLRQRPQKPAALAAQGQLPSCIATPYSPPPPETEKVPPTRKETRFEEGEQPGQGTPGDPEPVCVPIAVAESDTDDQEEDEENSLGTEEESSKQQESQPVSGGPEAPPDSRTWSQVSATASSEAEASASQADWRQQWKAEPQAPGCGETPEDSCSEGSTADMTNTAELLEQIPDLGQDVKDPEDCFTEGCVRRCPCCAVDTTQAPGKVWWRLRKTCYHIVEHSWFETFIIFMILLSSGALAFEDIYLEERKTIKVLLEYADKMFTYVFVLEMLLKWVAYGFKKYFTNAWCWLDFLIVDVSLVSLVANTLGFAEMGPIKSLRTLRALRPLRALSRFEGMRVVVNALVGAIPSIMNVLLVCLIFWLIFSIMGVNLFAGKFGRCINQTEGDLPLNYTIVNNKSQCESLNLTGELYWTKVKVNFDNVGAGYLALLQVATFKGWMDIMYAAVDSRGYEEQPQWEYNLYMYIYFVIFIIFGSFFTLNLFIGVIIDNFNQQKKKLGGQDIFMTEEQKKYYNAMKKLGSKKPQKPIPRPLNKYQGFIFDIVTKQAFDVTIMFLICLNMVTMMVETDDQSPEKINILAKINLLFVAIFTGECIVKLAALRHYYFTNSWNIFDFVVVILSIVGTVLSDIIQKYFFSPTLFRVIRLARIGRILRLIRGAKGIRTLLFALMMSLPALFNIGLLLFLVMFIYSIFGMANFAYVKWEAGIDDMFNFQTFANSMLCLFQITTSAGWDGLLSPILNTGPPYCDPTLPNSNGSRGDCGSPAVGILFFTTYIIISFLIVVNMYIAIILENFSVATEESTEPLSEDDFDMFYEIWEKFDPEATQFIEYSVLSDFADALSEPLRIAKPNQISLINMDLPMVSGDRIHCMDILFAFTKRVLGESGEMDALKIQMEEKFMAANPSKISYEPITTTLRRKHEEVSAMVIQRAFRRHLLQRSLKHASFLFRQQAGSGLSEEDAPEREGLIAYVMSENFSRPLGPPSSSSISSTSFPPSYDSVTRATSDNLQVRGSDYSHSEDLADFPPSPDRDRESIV
Text: Non-failing human donor heart samples were compared to explanted tissue from patients who had suffered from heart failure due to idiopathic dilated cardiomyopathy (DCM) and required cardiac transplantation, as shown in FIGS. 4A-4B (see e.g., Japp et al, J. Am. Coll. Cardiol. 2016, 67:2996-3010).
To exclude that the reduced signal was the result of a decrease in affinity in diseased vs. healthy tissue and confirm a deficit in channel density, dose-response experiments were performing using N-(2,6-dimethylphenyl)-2-(ethyl(2-fluoroethyl)amino)acetamide as the competition ligand. Using the modified Cheng-Prusoff equation for self-inhibition, these measurements allowed for the determination of Kd-values for the groups NF1 and F1, as shown in FIG. 4B. […] A ˜30% reduction in Bmax was observed.

With CCN(CC)CC(=O)Nc1c(C)cccc1C [lidocaine, reference compound] as the molecule, how does the “effect of lidocaine pre-block on myocardial tracer signal” value ([1]; 5 mg/kg i.v. lidocaine 5 min prior to tracer) read?
Its value is “blocked the myocardial signal; also recorded: suppressed the myocardial signal to background levels”.

And the “time to plateau of full block after the pharmacological dose” value ([2]; 5 mg/kg lidocaine)?
Its value is 3 minutes.

And the “reduction of tracer signal by in-scan lidocaine challenge” value ([2]; 5 mg/kg lidocaine i.v., bolus+infusion paradigm)?
Its value is “complete reduction of the radiolabeled compound signal to background level”.

And the “lidocaine dose from which reduction of myocardial tracer signal was observed” value ([2]; i.v. 5 min before tracer, compared to vehicle)?
Its value is 0.1 mg/kg.

And the “in vivo IC50 at the myocardium” value ([2]; in-scan lidocaine challenges 0.5-5 mg/kg i.v., bolus+infusion, estimation)?
The value was ~0.7 mg/kg.

Which estimated residence time ([1]; bolus 4 mCi + infusion 4 mCi over 90 min, lidocaine challenge) does the source give for CCN(CC[18F])CC(=O)Nc1c(C)cccc1C [Example 2, N-(2,6-dimethylphenyl)-2-(ethyl(2-(fluoro-^18F)ethyl)amino)acetamide] here?
The estimated residence time was 5 min⁻¹.

What about the “time after which blood background cleared” value ([1]; single bolus, healthy baboon) of the same molecule?
The value was 2 to 3 min.

What about the “residence time (t1/2^−1) of the radiotracer” value ([2]; from time course of signal reduction after lidocaine, estimation) of the same molecule?
Its value is ~1 min⁻¹.

And the “time to stable baseline signal” value ([2]; i.v. bolus ~150 μCi followed by constant infusion ~300 μCi over 60 min)?
The value was 20 min.

What about the “time for tracer bolus to reach peak signal” value ([2]; single bolus) of the same molecule?
Its value is 3 min.

And the “time after bolus injection at which blood pool had cleared and myocardial signal was revealed” value ([2]; single i.v. bolus)?
The value was 3 min.

What about the myocardial baseline signal ([2]; single i.v. bolus, healthy rats) of the same molecule?
Its myocardial baseline signal is “up to 2 % ID/cc”.

And the “reduction of total binding on wash-out” value ([3]; after 1 min wash, incubation 15 min)?
Its value is 50%.

And the “incubation time after which specific binding (BS) reached a constant level” value ([3]; incubation times 1, 5, 10, 20 min, wash 1 min)?
The value was 5 min.

And the “specific binding (BS) as share of overall binding” value ([3]; rat myocardial slices 20 μm, self-competition with excess (500 μM) unlabeled compound)?
The value was ~70%.

CCN(CCF)CC(=O)Nc1c(C)cccc1C [Example 1, N-(2,6-dimethylphenyl)-2-(ethyl(2-fluoroethyl)amino)acetamide] was tested. Which “level of non-specific / non-displaceable binding (BNS) as competition ligand” value ([3]; competition ligands at the same concentration against the 18F tracer) did it give?
Its value is “same level of BNS as lidocaine; also recorded: same level of non-displaceable binding”.

What about the “Kd-values, non-failing (NF1) vs failing (F1) left ventricular tissue” value [4] of the same molecule?
The value was “no difference in Kd-values between the groups”.
